Measured values taken from patent publication US20140288043A1, “PYRAZOLOPYRIDINE COMPOUNDS” (Genentech, Inc., priority 2013, published 2014).

The compounds below were run against LRRK2 (Homo sapiens, UniProt Q5S007) (assay: LRRK2 protein kinase assay ([γ-33P] ATP, peptide substrate), KI values of Table 1). Settings: LRRK2 affinity values.
Format: biochemical
Description: All LRRK2 protein kinases were of human origin and were sourced from Invitrogen Corporation (Carlsbad, Calif. 92008 USA) unless otherwise indicated. The active mutant used was recombinant human, catalytic domain (amino acids 970-2527) containing a G2019S mutation, GST-tagged, expressed in insect cells (Invitrogen Cat#PV4881). The wild type used was recombinant human, catalytic domain (amino acids 970-2527) GST-tagged, expressed in insect cells (Invitrogen Cat#PV4873). The kinase dead mutant used was recombinant human, catalytic domain (amino acids 970-2527) containing a D1994A mutation, GST-tagged, expressed in insect cells (Invitrogen Cat#PM4041AE). No special measures were taken to activate any of the kinases.
All assays were carried out at room temperature (˜21° C.) and were linear with respect to time and enzyme concentration under the conditions used. Assays were performed for 180 min in a 96 well format. LRRK2 was present at a concentration of approximately 5 nM. The enzyme was diluted and assayed in 50 mM Tris-HCl pH7.5, 0.1 mM EGTA, 1 mM DTT and 10 mM MgCl2. The concentration of magnesium chloride in the assay was 10 mM. The [γ-33P] ATP (0.4 μCi/well) was used at 134 uM for G2019S mutant and at 57 μM for the wild type kinase in order to be at Km. The peptide substrate in the assay was […] at 100 μM.
The assays were initiated with Mg/ATP and stopped by the addition of 25 μl/well 50% orthophosphoric acid. Reactions were harvested onto Whatman P81 Unifilter Plates (Fisher Scientific. Loughborough, LE115RG, UK. Cat# FDU-105-020U) using a Tomtec harvester. (Tomtec Hamden, Conn. 06514. USA) Plates were counted using a Perkin Elmer Top Count NX7. (Perkin Elmer, Shelton Conn. 06484-4794 USA)
IC50 values of inhibitors were determined after carrying out assays at 10 different concentrations of each compound in duplicate.

LRRK2, sequence (Q5S007 whole entry G2019S, form open): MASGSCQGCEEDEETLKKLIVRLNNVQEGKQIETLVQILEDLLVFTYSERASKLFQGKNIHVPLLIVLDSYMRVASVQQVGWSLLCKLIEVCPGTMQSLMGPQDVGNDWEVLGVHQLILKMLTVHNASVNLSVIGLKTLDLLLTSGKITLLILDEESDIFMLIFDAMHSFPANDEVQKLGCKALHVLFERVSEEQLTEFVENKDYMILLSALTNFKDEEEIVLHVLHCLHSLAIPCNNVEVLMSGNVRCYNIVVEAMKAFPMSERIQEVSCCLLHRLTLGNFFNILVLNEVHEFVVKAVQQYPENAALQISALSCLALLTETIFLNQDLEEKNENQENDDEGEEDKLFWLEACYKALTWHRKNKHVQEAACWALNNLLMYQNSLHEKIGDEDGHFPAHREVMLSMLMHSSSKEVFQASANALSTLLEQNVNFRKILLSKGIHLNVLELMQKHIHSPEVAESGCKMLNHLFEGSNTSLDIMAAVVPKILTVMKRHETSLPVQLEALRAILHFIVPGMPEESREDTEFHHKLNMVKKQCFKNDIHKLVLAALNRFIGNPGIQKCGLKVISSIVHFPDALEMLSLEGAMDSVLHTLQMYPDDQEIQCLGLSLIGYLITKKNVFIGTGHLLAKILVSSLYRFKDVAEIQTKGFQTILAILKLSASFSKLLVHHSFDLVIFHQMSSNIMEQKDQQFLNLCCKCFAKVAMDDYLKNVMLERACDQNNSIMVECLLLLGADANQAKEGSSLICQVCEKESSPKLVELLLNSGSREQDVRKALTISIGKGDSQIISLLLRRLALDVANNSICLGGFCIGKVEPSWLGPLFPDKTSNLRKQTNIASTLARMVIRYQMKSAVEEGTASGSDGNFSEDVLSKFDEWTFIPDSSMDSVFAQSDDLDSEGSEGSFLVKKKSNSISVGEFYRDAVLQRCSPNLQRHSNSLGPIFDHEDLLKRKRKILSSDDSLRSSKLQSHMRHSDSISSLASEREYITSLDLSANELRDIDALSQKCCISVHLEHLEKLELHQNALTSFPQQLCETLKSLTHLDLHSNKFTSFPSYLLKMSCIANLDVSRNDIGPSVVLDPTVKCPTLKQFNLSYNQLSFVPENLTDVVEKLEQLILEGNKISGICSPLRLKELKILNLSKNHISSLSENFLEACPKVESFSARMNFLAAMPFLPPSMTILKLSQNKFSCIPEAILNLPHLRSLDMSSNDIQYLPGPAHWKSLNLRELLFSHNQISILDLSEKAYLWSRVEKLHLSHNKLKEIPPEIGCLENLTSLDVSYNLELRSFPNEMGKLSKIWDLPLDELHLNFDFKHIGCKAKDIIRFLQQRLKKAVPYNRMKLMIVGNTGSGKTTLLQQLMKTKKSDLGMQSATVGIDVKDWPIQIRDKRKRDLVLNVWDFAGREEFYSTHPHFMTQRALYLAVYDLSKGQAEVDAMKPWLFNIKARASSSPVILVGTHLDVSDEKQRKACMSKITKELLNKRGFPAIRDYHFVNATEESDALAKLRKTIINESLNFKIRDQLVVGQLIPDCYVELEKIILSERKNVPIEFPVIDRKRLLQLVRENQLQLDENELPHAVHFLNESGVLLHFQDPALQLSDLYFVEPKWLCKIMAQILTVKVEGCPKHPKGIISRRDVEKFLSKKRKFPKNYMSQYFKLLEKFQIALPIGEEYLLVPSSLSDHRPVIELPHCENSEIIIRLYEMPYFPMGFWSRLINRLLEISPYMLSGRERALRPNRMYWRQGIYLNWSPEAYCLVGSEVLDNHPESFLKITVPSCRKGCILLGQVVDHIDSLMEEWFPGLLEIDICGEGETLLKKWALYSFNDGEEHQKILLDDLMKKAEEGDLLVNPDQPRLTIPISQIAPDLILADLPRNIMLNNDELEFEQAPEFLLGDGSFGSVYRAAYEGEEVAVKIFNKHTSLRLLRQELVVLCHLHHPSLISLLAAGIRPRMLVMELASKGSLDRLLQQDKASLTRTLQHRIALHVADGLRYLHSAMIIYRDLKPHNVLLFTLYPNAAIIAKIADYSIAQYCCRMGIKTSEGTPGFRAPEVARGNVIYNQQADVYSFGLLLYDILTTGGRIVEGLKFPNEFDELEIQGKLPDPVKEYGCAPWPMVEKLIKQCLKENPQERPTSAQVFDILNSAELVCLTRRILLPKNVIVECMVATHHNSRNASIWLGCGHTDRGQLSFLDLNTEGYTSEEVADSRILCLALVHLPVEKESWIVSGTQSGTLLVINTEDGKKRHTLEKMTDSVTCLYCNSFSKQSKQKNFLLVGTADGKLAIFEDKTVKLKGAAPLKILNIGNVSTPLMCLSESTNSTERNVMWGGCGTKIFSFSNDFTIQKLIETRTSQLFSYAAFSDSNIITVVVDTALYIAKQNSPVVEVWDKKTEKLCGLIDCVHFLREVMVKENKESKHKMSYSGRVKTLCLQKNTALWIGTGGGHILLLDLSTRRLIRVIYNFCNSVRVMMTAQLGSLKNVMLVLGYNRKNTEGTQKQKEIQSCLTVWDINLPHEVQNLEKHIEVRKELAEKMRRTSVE

Structure (SMILES) | Ki [µM]
O=C(c1ccnc(-c2n[nH]c3ccnc(NC4CCOCC4)c23)c1)N1CCC1 [Compound 63, azetidin-1-yl(2-(4-((tetrahydro-2H-pyran-4-yl)amino)-1H-pyrazolo[4,3-c]pyridin-3-yl)pyridin-4-yl)methanone] | 0.0147
Cc1cc2[nH]nc(-c3cc(C(=O)N(C)C)ccn3)c2c(NC2CCOCC2)n1 [Compound 60, N,N-dimethyl-2-(6-methyl-4-((tetrahydro-2H-pyran-4-yl)amino)-1H-pyrazolo[4,3-c]pyridin-3-yl)isonicotinamide] | 0.644

The next lines start with the values.

Ki [µM] | Structure (SMILES)
0.0145 | CCNc1nccc2[nH]nc(-c3cn(C)nn3)c12 [Compound 10, N-ethyl-3-(1-methyl-1H-1,2,3-triazol-4-yl)-1H-pyrazolo[4,3-c]pyridin-4-amine]
0.0166 | Cc1cc(C(=O)N(C)C)cc(-c2n[nH]c3ccnc(NC4CCOCC4)c23)n1 [Compound 64, N,N,2-trimethyl-6-(4-((tetrahydro-2H-pyran-4-yl)amino)-1H-pyrazolo[4,3-c]pyridin-3-yl)isonicotinamide]
0.0258 | CC(C)Nc1nccc2[nH]nc(-c3cc(S(=O)(=O)C(C)C)ccn3)c12 [Compound 74, N-isopropyl-3-(4-(isopropylsulfonyl)pyridin-2-yl)-1H-pyrazolo[4,3-c]pyridin-4-amine]
